The numbers were not newly measured in US20140004043A1, “CRYPTOPHANE DERIVATIVES AND METHODS OF USE THEREOF” (Georgetown Univeristy, priority 2010, published 2014), which cites them from elsewhere.

The conditions of this series: cited from earlier work.

Read-outs that look alike come from different tables or passages of the source.

On to `c1cc2c3cc1OCOc1ccc4c(c1)Cc1ccc5cc1Cc1ccc(cc1C4)OCOc1ccc(c(c1)Cc1ccc(cc1C2)OCO5)C3` (racemic) [Cryptophane 1, (±)-cryptophane-1,1,1], for which the “binding constant with xenon Ka” value (293 K in 1,1,2,2-tetrachloroethane-d2 (TCE-d2)) is on record as ~10,000 M^−1. In addition, under “TCE-d2, 293 K”, the Ka, association constant for xenon binding was 10000 M⁻¹.
For the compound `COc1cc2c3cc1OCCOc1cc4c(cc1OC)Cc1cc5c(OC)cc1Cc1cc(c(OC)cc1C4)OCCOc1cc(c(cc1OC)C3)Cc1cc(OC)c(cc1C2)OCCO5` [A (or 222), (±)-cryptophane-A], the “Ka, association constant for xenon binding” value (TCE-d2, 278 K (footnote d)) was 3300^d. For the same compound, the binding constant Ka of the xenon complex (organic solution, 278K) was 3900 M⁻¹.
